Experimental data published in patent US10584159B2, “Renilla based biosensors for monitoring biomolecule localization and trafficking in cells” (The Royal Institution for the Advancement of …, priority 2014, dated 2020).

Tests used:
AT1R [1] = target: T1, AT1R (Homo sapiens, UniProt P30556); assay: PKN-based RhoA activation BRET assay (PKN-crib-RlucII/rGFP-CAAX) with AT1R; format: cell-based; conditions: 100 nM Ubo-Qic 30 min, ligand 4 min
T1 construct: expressed in transfected cells; host or cells: HEK293SL
T1 sequence (P30556 1-359): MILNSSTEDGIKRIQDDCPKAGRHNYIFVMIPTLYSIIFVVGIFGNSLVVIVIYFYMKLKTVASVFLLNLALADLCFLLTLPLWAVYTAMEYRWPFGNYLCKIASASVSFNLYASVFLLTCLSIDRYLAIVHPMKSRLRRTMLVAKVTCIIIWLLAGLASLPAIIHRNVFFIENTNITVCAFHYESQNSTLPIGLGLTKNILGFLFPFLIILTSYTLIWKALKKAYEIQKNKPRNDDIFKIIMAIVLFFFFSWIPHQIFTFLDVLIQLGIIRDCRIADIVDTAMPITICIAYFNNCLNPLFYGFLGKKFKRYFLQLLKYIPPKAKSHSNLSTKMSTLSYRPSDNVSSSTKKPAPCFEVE
Experimental: (§1) BRET measurements for FIGS. 1B to 9D, 25D to 25F. The following day of transfection, cells were detached and replated onto poly-ornithine coated white 96-well plate at a density of 25,000 cells per well. The next day, cells were washed once with pre-warmed Tyrode's buffer (140 mM NaCl, 2.7 mM KCl, 1 mM CaCl2, 12 mM NaHCO3, 5.6 mM D-glucose, 0.5 mM MgCl2, 0.37 mM NaH2PO4, 25 mM HEPES, pH 7.4), and then stimulated with either various concentrations of ligands in Tyrode's buffer for the indicated time, or single concentration of ligands for various times at 37° C. For recycling experiment, after stimulating the cells with the ligands for 30 min at 37° C., they were washed either three times with ice-cold Tyrode's buffer or once with Tyrode's buffer/three times with acid (50 mM sodium citrate, pH 4.0)/two times with Tyrode's buffer. All the washing steps were performed on ice. […] The cell-permeable substrate, coelenterazine 400a was added at a final concentration of 5 μM in Tyrode's buffer 3-4 min before BRET measurements. […] The BRET signal was determined by calculating the ratio of the light intensity emitted by the GFP10 or rGFP over the light intensity emitted by the RlucII. All the BRET measurements were performed in triplicate at 37° C.
PKN-based RhoA activation assay. For FIGS. 25B-D, HEK293SL cells were grown in DMEM supplemented with 6% fetal bovine serum (FBS) and 20 μg/ml gentamycin, at 37° C. Cells were seeded at a density of 7.5×10^5 cells per 100 mm dishes and were transiently transfected the next day with constructs encoding AT1R (3 μg) along with PKN-crib-RlucII (90 ng) and rGFP-CAAX (480 ng) using calcium phosphate method as described previously. After 24 h, cells were detached and seeded onto poly-ornithine-coated 96-well white plates at a density of 25 000 cells per well in media. The next day, cells were washed once with Tyrode's buffer and left in 80 μl of Tyrode's buffer at 37° C. When indicated, cells were treated with Ubo-Qic 100 nM for 30 min or C3 toxin for 3 μg/ml (in FIG. 25I), 4 hours at 37° C. Cell stimulation and BRET measurements were done at RT. BRET signals were monitored by addition of Coel-400a to a final concentration of 5 μM using a Synergy2 (BioTek®) microplate reader. […] For FIG. 25B, a transfection mix of 200 ng of TPαR, 20 ng PKN-RlucII, 600 ng CAAX-rGFP, complemented to 2 μg with ssDNA and PEI at a ratio of PEI:DNA of 3:1, is added to 3 ml of Hek293SL (350 000 cells/ml). Cells were seeded on poly-D-lysine pretreated plates. […] Cells were stimulated for 2 min with the indicated doses of U46619. […] For FIGS. 25I and J, a transfection mix of 200 ng of TPαR, 20 ng PKN-RlucII, 600 ng CAAX-rGFP, complemented to 2 μg with ssDNA and PEI at a ratio of PEI:DNA of 3:1, is added to 3 ml of Hek293SL (350,000 cells/ml). Cells were seeded on poly-D-lysine pretreated plates. 24 h post-transfection, the Rho inhibitor (CT04; Cytoskeleton, Inc) was added when indicated, overnight at final concentration 2 μg/ml. 48 h post-transfection, cells were washed and preincubated in Tyrode +1 mM CaCl2 at 37° C. for 60 min then treated, as indicated, with 100 nM of U46619 or 1 μg/ml of Rho activator II (CN03; Cytoskeleton, Inc) for 1 min at 37° C. […] BRET was measured at 37° C., using a Tristar Microplate Reader (Berthold Technologies).

[2] = system: V2R mutants (Y128S and W164S); assay: BRET pharmacological chaperone rescue assay (rGFP-CAAX), V2R mutants; format: cell-based, human; conditions: 10 μM, 16 h, BRET1
Experimental: BRET assay for evaluation of PC rescue of cell surface expression and functionality (sequestration assay). In FIGS. 12A to 18E, Hek293 cells were transiently transfected using PEI as described in this section. The DNA transfected per well of a 96-well plate is as follow: in FIGS. 12A and 12B, with 2.4 ng of hMC4R-RlucII encoding construct and an increasing quantity of rGFP-CAAX (Kras) up to 9.6 ng for FIGS. 12A and for 12B, rGFP-PB up to 9.6 ng; in FIGS. 13A to 13C with 0.6, 1.2 or 2.4 ng of hMC4R-RlucII and 4.8 ng of rGFP-CAAX (Kras); in FIG. 13D with 2.4 ng of polycistronic rGFP-CAAX(Kras)/MC4R-RlucII construct; in FIG. 13E with 1.2 ng of hV2R-RlucII and 4.8 ng of rGFP-CAAX (Kras); in FIGS. 14A to 16B with 2.4 ng of hMC4R-RlucII and 7.2 ng of rGFP-CAAX (Kras); Hek293 cells stably expressing rGFP-CAAX(Kras) were transfected with 0.6, 1.2 or 2.4 ng of hMC4R-RlucII; in FIG. 17A or 0.6, 1.2 or 2.4 ng of hV2R_Y128S-RlucII; in FIG. 17B; in FIGS. 18A and 18B with 0.6, 1.2 or 2.4 ng of hERG-RlucII and 4.8 ng of rGFP-CAAX (Kras); and in FIGS. 18C-18E with 0.6 ng of hERG-RlucII and 7.2 ng of rGFP-CAAX (Kras). […] For the BRET assay, cells were washed once with PBS and left in Tyrode's buffer. […] BRET values were determined by calculating the ratio of the light emitted by the acceptor over the light emitted by the RlucII.

AT1R [3] = target: T1, AT1R; assay: β-arrestin2 targeting to endosomes BRET (AT1R/βarr2-RlucII/rGFP-endofinFYVE); format: cell-based
Experimental: BRET measurements for FIGS. 1B to 9D, 25D to 25F. The following day of transfection, cells were detached and replated onto poly-ornithine coated white 96-well plate at a density of 25,000 cells per well. The next day, cells were washed once with pre-warmed Tyrode's buffer (140 mM NaCl, 2.7 mM KCl, 1 mM CaCl2, 12 mM NaHCO3, 5.6 mM D-glucose, 0.5 mM MgCl2, 0.37 mM NaH2PO4, 25 mM HEPES, pH 7.4), and then stimulated with either various concentrations of ligands in Tyrode's buffer for the indicated time, or single concentration of ligands for various times at 37° C. For recycling experiment, after stimulating the cells with the ligands for 30 min at 37° C., they were washed either three times with ice-cold Tyrode's buffer or once with Tyrode's buffer/three times with acid (50 mM sodium citrate, pH 4.0)/two times with Tyrode's buffer. All the washing steps were performed on ice. Cells were then further incubated with Tyrode's buffer at 37° C. in a water bath for 45 min. The cell-permeable substrate, coelenterazine 400a was added at a final concentration of 5 μM in Tyrode's buffer 3-4 min before BRET measurements. Measurements were performed by using Synergy2 (BioTek®) microplate reader with a filter set of 410±80 nm and 515±30 nm for detecting the RlucII Renilla luciferase (donor) and GFP10 or rGFP (acceptor) light emissions, respectively. The BRET signal was determined by calculating the ratio of the light intensity emitted by the GFP10 or rGFP over the light intensity emitted by the RlucII. All the BRET measurements were performed in triplicate at 37° C.

AT1R [4] = target: T2, AT1R (Homo sapiens, UniProt P30556); assay: AT1R sorting to rab4 vesicles BRET (AT1R-RlucII/rGFP-rab4); format: cell-based; set-up: expressed in transfected cells; host or cells: HEK293SL (HEK293 for the screen); conditions: 100 nM AngII, 100 nM SI, 1 μM DVG
T2 sequence (P30556 with tags, fused parts or gaps): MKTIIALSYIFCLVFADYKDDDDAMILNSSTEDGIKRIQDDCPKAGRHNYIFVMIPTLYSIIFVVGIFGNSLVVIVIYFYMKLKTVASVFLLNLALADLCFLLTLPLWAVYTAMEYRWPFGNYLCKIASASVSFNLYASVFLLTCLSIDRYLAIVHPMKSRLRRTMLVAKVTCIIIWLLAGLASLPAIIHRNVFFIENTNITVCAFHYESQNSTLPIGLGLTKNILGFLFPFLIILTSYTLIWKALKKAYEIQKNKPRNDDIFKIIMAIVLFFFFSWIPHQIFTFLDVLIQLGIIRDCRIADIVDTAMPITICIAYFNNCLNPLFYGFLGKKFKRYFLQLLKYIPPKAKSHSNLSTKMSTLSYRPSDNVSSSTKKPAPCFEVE
Experimental: as §1

AT1R [5] = target: T2, AT1R; assay: AT1R trafficking to endosomes BRET (AT1R-RlucII/rGFP-endofinFYVE); format: cell-based; set-up: expressed in transfected cells; host or cells: HEK293SL (HEK293 for the screen)
Experimental: as §1
(§2) Data Analysis. Estimation of the t1/2 and the EC50 values for ligand-mediated endocytosis were calculated using the GraphPad® Prism curve fitting program The curves presented throughout this study, representing the best fits, and were generated using this GraphPad® Prism program as well.

AT1R [6] = target: T2, AT1R; assay: AT1R endocytosis BRET at plasma membrane (AT1R-RlucII/lyn-rGFP); format: cell-based; set-up: signal peptide-Flag-human AT1R (spFlag-AT1R); signal peptide (N); expressed in transfected cells; host or cells: HEK293SL (HEK293 for the screen); conditions: 0.45 M sucrose 20 min
Experimental: as §1, §2

[Sar1-Val5-D-Phe8] AngII [SVdF]
impact of Gq inhibition on ligand-mediated Rho activation (AT1R [1]): reduced efficacy and a rightward-shifted potency

CCOc1ccc2c(c1)C1(CCC(OCCN3CCOCC3)CC1)C(=O)N2S(=O)(=O)c1ccc(C(=O)NC(C)(C)C)cc1OC (centres unmarked) [SR121463]
PC-mediated rescue of cell surface expression [2]: PC-mediated rescue

CC[C@H](C)[C@H](NC(=O)[C@@H]1CCCN1C(=O)[C@H](Cc1c[nH]cn1)NC(=O)[C@@H](NC(=O)[C@H](Cc1ccc(O)cc1)NC(=O)[C@@H](NC(=O)[C@H](CCCNC(=N)N)NC(=O)CNC)C(C)C)[C@@H](C)CC)C(=O)O [SI, [Sar^1, IIe^8]-AngII]
β-arrestin2 trafficking to endosomes with receptors, compared to AngII (AT1R [3]; 40 min): weakly promoted | time at which BRET signal plateaued (AT1R [4]): 10 min | impact of Gq inhibition on ligand-mediated Rho activation (AT1R [1]): reduced efficacy and a rightward-shifted potency | time to maximal AT1R internalization into endosomes (AT1R [5]; 100 nM SI or 1 μM DVG): 20 min | less efficacious than AngII at promoting AT1R concentration in early endosomes (AT1R [5]; 100 nM SI or 1 μM DVG vs 100 nM AngII): 20% | receptor accumulation in endosomes, compared to AngII (AT1R [5]; 40 min): promoted less receptor accumulation in endosomes

CC[C@H](C)[C@H](NC(=O)[C@H](Cc1ccc(O)cc1)NC(=O)[C@@H](NC(=O)[C@H](CCCNC(=N)N)NC(=O)CNC)C(C)C)C(=O)N[C@@H](Cc1cnc[nH]1)C(=O)N1CCC[C@H]1C(=O)N[C@H](C)C(=O)O [TRV, [Sar1-D-Ala8] AngII]
impact of Gq inhibition on ligand-mediated Rho activation (AT1R [1]): did not affect

CNCC(=O)N[C@@H](CCCN=C(N)N)C(=O)N[C@H](C(=O)N[C@@H](Cc1ccc(O)cc1)C(=O)N[C@H](C(=O)N[C@@H](Cc1cnc[nH]1)C(=O)N1CCC[C@H]1C(=O)N[C@@H](C)C(=O)O)C(C)C)C(C)C [Saralasin]
impact of Gq inhibition on ligand-mediated Rho activation (AT1R [1]): did not affect

OC[C@H]1O[C@@](CO)(O[C@H]2O[C@H](CO)[C@@H](O)[C@H](O)[C@H]2O)[C@@H](O)[C@@H]1O [sucrose]
effect on AngII-induced BRET response in the endosomes (β-arrestin2) (AT1R [3]; 0.45 M sucrose 20 min): efficiently blocked | effect on AngII-induced BRET response in the endosomes (receptor) (AT1R [5]; 0.45 M sucrose 20 min): efficiently blocked | effect on AngII-induced BRET response at the plasma membrane (AT1R [6]): efficiently blocked

CO/C1=C\C(C)=C\[C@@H](C)[C@@H](O)[C@@H](C)C/C(C)=C/C=C/[C@H](OC)[C@@H]([C@@H](C)[C@@H](O)[C@H](C)[C@@]2(O)C[C@@H](O)[C@H](C)[C@@H](C(C)C)O2)OC1=O [bafilomycin A]
effect on agonist-mediated accumulation of AT1R in endosomes (AT1R [5]; AngII 40 min): increased
